From patent US8003630B2, “Combinatorial therapies for the treatment of neoplasias using the opioid growth factor receptor” (The Penn State Research Foundation, priority 2004, dated 2011)

Key:
[1] = metabolized primarily in the liver; cited from earlier work
[2] = test system: carcinomas of the colon and rectum; details: single agent; cited from earlier work
MiaPaCa-2 cells = test: Growth curves of MiaPaCa-2 cells, cell proliferation (MTT) assay, absorbency; details: for Significance from 5-FU 10^−6 M Values: 5-FU 10^−5 M alone or with OGF; for Significance from 5-FU 10^−5 M Values: 5-FU 10^−6 M alone or with OGF (b: 5-FU 10^−5 M more inhibitory); for decrease in cell number from controls: MiaPaCa-2
Source text: Cells were counted using a standard MTT assay. In general, each data point represents the average absorbency taken from 10 wells/treatment; error bars represent the S.E.M.

For `O=c1[nH]cc(F)c(=O)[nH]1` [5-FU, 5-fluorouracil], the “drug appearing unchanged in urine” value [1] is given as 10%, the mean response rate [2] is given as “less than 20%” and the “Significance from 5-FU 10^−6 M Values” (MiaPaCa-2 cells; 48 h) is given as “###^b (Significantly different from 5-FU 10^−6 M at p < 0.001 (###))”. The “Significance from 5-FU 10^−5 M Values” (MiaPaCa-2 cells; 48 h) was “^^^^b (Significantly different from 5-FU 10^−5 M at p < 0.001)”, the “Significance from 5-FU 10^−6 M Values” (MiaPaCa-2 cells; 72 h) was “###^b (Significantly different from 5-FU 10^−6 M at p < 0.001 (###))” and the “Significance from 5-FU 10^−5 M Values” (MiaPaCa-2 cells; 72 h) was “^^^^b (Significantly different from 5-FU 10^−5 M at p < 0.001)”. For the same compound, the “Significance from 5-FU 10^−6 M Values” (MiaPaCa-2 cells; 96 h) was “###^b (Significantly different from 5-FU 10^−6 M at p < 0.001 (###))”, the “Significance from 5-FU 10^−5 M Values” (MiaPaCa-2 cells; 96 h) was “^^^^b (Significantly different from 5-FU 10^−5 M at p < 0.001)” and the “decrease in cell number from controls” value (MiaPaCa-2 cells; 48 h, 5-FU 10^-5 M and/or OGF 10^−6 M) was 26.0%. For the same compound, the “decrease in cell number from controls” value (MiaPaCa-2 cells; 48 h, 5-FU 10^-6 M alone or with OGF 10^−6 M) was 12.7%, the “decrease in cell number from controls” value (MiaPaCa-2 cells; 72 h, 5-FU 10^-5 M and/or OGF 10^−6 M) was 30.1% and the “decrease in cell number from controls” value (MiaPaCa-2 cells; 72 h, 5-FU 10^-6 M alone or with OGF 10^−6 M) was 10.8%. For the same compound, the “decrease in cell number from controls” value (MiaPaCa-2 cells; 96 h, 5-FU 10^-5 M and/or OGF 10^−6 M) was 36.4% and the “decrease in cell number from controls” value (MiaPaCa-2 cells; 96 h, 5-FU 10^-6 M alone or with OGF 10^−6 M) was 15.2%.
